{"source": "paper PMC8952293", "about": "“A Histone Deacetylase (HDAC) Inhibitor with Pleiotropic In Vitro Anti-Toxoplasma and Anti-Plasmodium Activities Controls Acute and Chronic Toxoplasma Infection in Mice” (International Journal of Molecular Sciences, 2022)", "key": {"[1]": {"test_system": "P. falciparum NF54", "assay": "In vitro P. falciparum erythrocytic infection (SYBR green I flow cytometry)", "type": "cell-based", "settings": "Plasmodium falciparum, PfNF54 blood stage, 48 h, three independent experiments", "description": "Blood stage. Ring-stage synchronized cultures of PfNF54 at 2.5% hematocrit and at approximately 1% parasitemia were incubated with drugs or DMSO (vehicle control) in 96-well plates, for 48 h, at 37 °C in a 5% CO2 and 5% O2 atmosphere. The stock solution of JF363 was prepared in DMSO. Working solutions (1, 10, 100, 200, 500, 1000, 2000 nM) were prepared from the stock solution in a complete malaria culture medium (CMCM), which consisted of RPMI 1640 supplemented with 25 mM HEPES, 2.4 mM L-glutamine, 50 μg/mL gentamicin, 0.5% w/v AlbuMAX (Gibco BRL), 11 mM glucose, 1.47 mM hypoxanthine, and 37.3 mM NaHCO3. Five microliters of the culture (approximately 800,000 cells) was stained with the DNA-specific dye SYBR green I for each measurement. Following 20 min incubation in the dark, the stained sample was analyzed by flow cytometry. For each flow cytometry measurement, approximately 100,000 events were analyzed. All samples were analyzed in triplicate, and three different experiments were performed and analyzed using GraphPad Prism 8 (Prism 4 for Mac OS X, version 5.0b, San Diego, CA, USA)."}, "[2]": {"test_system": "T. gondii type I RH strain", "assay": "Acute toxoplasmosis survival study in CD1 mice", "type": "in vivo, mouse", "settings": "for mouse survival, by day: once a day for 7 days, untreated infected mice succumbed by day 9", "description": "To determine the in vivo anti-Toxoplasma effect of the molecule JF363 during the acute phase of infection, we analyzed the survival rate of non-inbred CD1 mice infected by the type I RH strain treated for […]. […] All untreated and infected mice succumbed by day 9 (Figure 3).\nNon-inbred CD1a mice (Janvier Labs, Le Genest-Saint-Isle, France) were intraperitoneally infected with 100 tachyzoites of RH YFP strain in […] of PBS. Six hours post-infection and then once a day for 7 days, mice were treated per os with either 40 or 160 mg/kg of JF363 prepared in corn oil/5% DMSO. Control animals were treated with the vehicle alone. Animals were monitored each day and sacrificed when the limit points were reached."}, "[3]": {"assay": "Ex vivo biodistribution, ratios infected/control mice", "type": "in vivo", "settings": "suggested from brain radioactivity of the iodinated radiotracer", "description": "Twenty-four hours after injection and immediately following SPECT/CT image acquisitions, anesthetized mice were euthanized using CO2, and tissue samples (brain, heart, stomach, liver, salivary glands, abdominal fat, small intestine, muscle, pancreas, lungs, spleen, kidneys, blood, thyroid, large intestine, genital tract) and urine were harvested. Samples were weighed, and their radioactivity was determined with a gamma counter (Wizard2, PerkinElmer, Courtaboeuf, France). Results were corrected for decay, injected dose, and organ weight and expressed as % ID/g because the bodyweight (BW) of mice was different between both groups (normal and infected).\nStandard uptake values (SUVs) were also calculated ((tissue activity/gram of tissue)/ID × BW). Due to high activity detected in the animal blood, results were also expressed as a ratio between %ID in a gram of organ and %ID in a gram of blood (org/blood ratio). Then, to assess the effect of Toxoplasma infection on the biodistribution of the iodoJF363, the ratios of radioactivity (infected/noninfected) were calculated."}}, "data": [{"smiles": "COc1cccc(CC(=O)Nc2ccc(C(=O)NO)cc2)c1", "note": "[JF363]", "values": [{"measurement": "IC50", "setting": "[1]", "value": "230 ± 15", "unit": "nM"}, {"measurement": "mouse survival, by day", "setting": "[2]; 40 mg/kg oral", "value": 11, "unit": "days"}, {"measurement": "increase of mouse survival", "setting": "[2]; 40 mg/kg oral, lethal dose of RH strain", "value": "two days"}, {"measurement": "mouse survival, by day", "setting": "[2]; 160 mg/kg oral", "value": 14, "unit": "days"}, {"measurement": "blood–brain barrier permeability", "setting": "[3]", "value": "suggests a permeability of the blood–brain barrier"}]}]}
